Test results from US9340493B2, “Hydroxamic acid derivatives useful as antibacterial agents” (Pfizer Inc., priority 2008, dated 2016).
In brackets after ≈: the same amount, converted by molar mass.

Experiments:
[1] = tested on: P. aeruginosa PAO280; test: MIC determination, P. aeruginosa PAO280; assay type: cell-based; settings: Pseudomonas aeruginosa, PAO280, read-out: MIC (ug/mL) P. aeruginosa PAO280
Summary of the method: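 Broth dilution MIC per CLSI M7-A7/M100-S18 guidelines. Strain PAO280 lacks efflux pumps MexAB-oprM, MexXY and MexZ.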

[2] = tested on: Enterobacter aerogenes; test: MIC determination, E. aerogenes; assay type: cell-based; settings: Klebsiella aerogenes; quinolone-resistant, ESBL-expressing clinical isolate; * = arithmetic mean of 2-6 MIC determinations; read-out: MIC (ug/mL) E. aerogenes
Summary of the method: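 Clinical E. aerogenes isolate, quinolone-resistant and ESBL-expressing. MIC measured in vitro by dilution testing according to CLSI guidelines (M7-A7, M100-S18).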

[3] = tested on: Escherichia coli EC-1; test: MIC determination, E. coli EC-1; assay type: cell-based; settings: EC1, EC-1: VOGEL, * = arithmetic mean of 2-6 MIC determinations, read-out: MIC (ug/mL) E. coli EC-1
Summary of the method: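 Minimum inhibitory concentration against Escherichia coli EC-1 was determined in vitro by dilution susceptibility testing under CLSI M7-A7 and M100-S18 guidelines.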

[4] = target: T1, Pseudomonas aeruginosa LpxC enzyme (Pseudomonas aeruginosa, UniProt P47205); test: IC50 assay, LpxC enzyme from P. aeruginosa; assay type: biochemical; settings: 0.5 nM enzyme, 25° C., pH 8.0, 20 min; ** = average of 2-8 assays
T1 construct: made in house; host or cells: E. coli
T1 sequence (P47205 1-303): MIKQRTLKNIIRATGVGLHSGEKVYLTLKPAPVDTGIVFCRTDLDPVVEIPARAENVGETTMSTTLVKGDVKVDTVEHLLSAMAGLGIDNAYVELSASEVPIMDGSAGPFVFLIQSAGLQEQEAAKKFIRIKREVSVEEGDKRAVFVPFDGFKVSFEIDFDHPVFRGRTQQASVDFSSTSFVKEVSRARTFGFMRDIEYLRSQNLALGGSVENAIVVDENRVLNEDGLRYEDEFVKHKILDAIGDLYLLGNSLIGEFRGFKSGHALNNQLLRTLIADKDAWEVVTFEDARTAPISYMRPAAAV
Summary of the method: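 P. aeruginosa LpxC (0.5 nM, expressed in E. coli) reacted with 0.5 uM ³H-acetyl-labelled UDP-3-O-(R-3-hydroxydecanoyl)-GlcNAc in 50 mM sodium phosphate pH 8.0 with 1 mg/ml BSA at 25 °C for 20 min. Charcoal stopped the reaction, and filtrate radioactivity was counted by scintillation after no-enzyme background subtraction.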

[5] = tested on: Acinetobacter baumanii/haemolyticus; test: MIC determination, A. baumanii/haemolyticus; assay type: cell-based; settings: Acinetobacter baumannii; multidrug-resistant clinical isolate; * = arithmetic mean of 2-6 MIC determinations; read-out: MIC (ug/mL) A. baumanii/haemolyticus
Summary of the method: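 MICs were determined by CLSI broth dilution (M7-A7, M100-S18) against a multidrug-resistant clinical isolate of Acinetobacter baumanii/haemolyticus.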

[6] = tested on: Staphylococcus aureus ATCC 29213; test: MIC determination, S. aureus ATCC 29213; assay type: cell-based; settings: ATCC29213, CLSI quality control reference strain, * = arithmetic mean of 2-6 MIC determinations, read-out: MIC (ug/mL) S. aureus ATCC 29213
Summary of the method: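 MIC was measured by dilution susceptibility testing following CLSI guidelines (M7-A7; M100-S18). The test organism is the CLSI quality-control reference strain.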

[7] = tested on: Klebsiella pneumoniae; test: MIC determination, K. pneumoniae; assay type: cell-based; settings: ciprofloxacin-resistant, ESBL-expressing clinical isolate, * = arithmetic mean of 2-6 MIC determinations, read-out: MIC (ug/mL) K. pneumoniae
Summary of the method: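 MIC determined by broth dilution per CLSI M7-A7 and M100-S18 guidelines. Strain: ciprofloxacin-resistant, ESBL-expressing clinical isolate of K. pneumoniae.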

[8] = tested on: P. aeruginosa UI-18; test: MIC determination, P. aeruginosa UI-18; assay type: cell-based; settings: Pseudomonas aeruginosa, UI18; wild-type; * = arithmetic mean of 2-6 MIC determinations; read-out: MIC (ug/mL) P. aeruginosa UI-18
Summary of the method: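 MIC by broth dilution following CLSI M7-A7 and M100-S18 guidelines, tested against wild-type P. aeruginosa UI-18.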

Compound | MIC [1] [µg/mL] | MIC [2] [µg/mL] | MIC [3] [µg/mL] | IC50 [4] [µM] | MIC [5] [µg/mL] | MIC [6] [µg/mL] | MIC [7] [µg/mL] | MIC [8] [µg/mL]
C[C@@](OCc1ccc(-c2ccc(C(F)(F)F)cc2)cc1)(C(=O)NO)[C@@H](O)c1cc(CO)on1 [Example 42, (2S,3S)-N,3-dihydroxy-3-[5-(hydroxymethyl)isoxazol-3-yl]-2-methyl-2-{[4′-(trifluoromethyl)biphenyl-4-yl]methoxy}propanamide] | < 0.06 | > 32 | 16 (≈ 34.3 µM) | 0.000372 | 32 (≈ 68.6 µM) | > 32 | > 32 | 2 (≈ 4.29 µM)
Cn1nncc1[C@H](O)[C@](C)(OCc1ccc(-c2ccccc2)cc1)C(=O)NO [Example 19, (2S,3S)-2-(biphenyl-4-ylmethoxy)-N,3-dihydroxy-2-methyl-3-(1-methyl-1H-1,2,3-triazol-5-yl)propanamide] | 2 (≈ 5.23 µM) | > 64 | > 64 | 0.00256 | > 64 | > 64 | > 64 | > 64
CC(OCc1ccc(-c2ccccc2)cc1)(C(=O)NO)C(=O)NCc1cc(-c2ccccc2)on1 (centres unmarked) [Example 67, 2-(biphenyl-4-ylmethoxy)-N-hydroxy-2-methyl-N′-[(5-phenylisoxazol-3-yl)methyl]malonamide] | 0.5 (≈ 1.06 µM) | > 16 | 16 (≈ 33.9 µM) | 0.0032 | 8 (≈ 17 µM) | > 16 | > 16 | 4 (≈ 8.48 µM)
Cc1cc(CNC(=O)C(C)(OCc2ccc(-c3ccc(F)cn3)cc2)C(=O)NO)no1 (centres unmarked) [Example 88, 2-{[4-(5-fluoropyridin-2-yl)benzyl]oxy}-N-hydroxy-2-methyl-N′-[(5-methylisoxazol-3-yl)methyl]malonamide] | 0.5 (≈ 1.17 µM) | > 64 | > 64 | 0.00698 | > 64 | > 64 | > 64 | 64 (≈ 149 µM)
CC(OCc1ccc(-c2ccccc2)cc1)(C(=O)NO)C(=O)NCc1nc(-c2ccccc2)no1 (centres unmarked) [Example 69, 2-(biphenyl-4-ylmethoxy)-N-hydroxy-2-methyl-N′-[(3-phenyl-1,2,4-oxadiazol-5-yl)methyl]malonamide] | 0.75 (≈ 1.59 µM) | > 16 | 16 (≈ 33.9 µM) | 0.00446 | 16 (≈ 33.9 µM) | > 16 | > 16 | 12 (≈ 25.4 µM)
Cc1cc(CNC(=O)C(C)(OCc2ccc(-c3ccc(F)cc3)nc2)C(=O)NO)no1 (centres unmarked) [Example 53, 2-{[6-(4-fluorophenyl)pyridin-3-yl]methoxy}-N-hydroxy-2-methyl-N′-[(5-methylisoxazol-3-yl)methyl]malonamide] | 0.5 (≈ 1.17 µM) | > 64 | 16 (≈ 37.3 µM) | 0.0143 | 64 (≈ 149 µM) | > 64 | > 64 | 32 (≈ 74.7 µM)
CC(CO)(OCc1ccc(-c2ccc(F)cc2F)cc1)C(=O)NO (centres unmarked) [Example 66, 2-[(2′,4′-difluorobiphenyl-4-yl)methoxy]-N,3-dihydroxy-2-methylpropanamide] | 1.5 (≈ 4.45 µM) | > 64 | > 64 | 0.00332 | > 64 | > 64 | > 64 | 64 (≈ 190 µM)
Cc1cccnc1CCNC(=O)C(C)(OCc1ccc(-c2ccccc2)cc1)C(=O)NO (centres unmarked) [Example 70, 2-(biphenyl-4-ylmethoxy)-N-hydroxy-2-methyl-N′-[2-(3-methylpyridin-2-yl)ethyl]malonamide] | 1 (≈ 2.31 µM) | > 64 | 16 (≈ 36.9 µM) | 0.00804 | 32 (≈ 73.8 µM) | > 64 | > 64 | 32 (≈ 73.8 µM)
Cc1ccc(-c2ccc(CO[C@](C)(C(=O)NO)[C@@H](O)c3cc(C)on3)cc2)cc1 [Example 39, (2S,3S)-N,3-dihydroxy-2-methyl-2-[(4′-methylbiphenyl-4-yl)methoxy]-3-(5-methylisoxazol-3-yl)propanamide] | 0.03 (≈ 0.0757 µM) | 32 (≈ 80.7 µM) | 2 (≈ 5.04 µM) | 0.000589 | 4 (≈ 10.1 µM) | > 64 | 4 (≈ 10.1 µM) | 1 (≈ 2.52 µM)
CC(CO)(OCc1ccc(-c2ccc(-c3cc(CN4CCOCC4)no3)cc2)cc1)C(=O)NO (centres unmarked) [Example 55, N,3-dihydroxy-2-methyl-2-({4′-[3-(morpholin-4-ylmethyl)isoxazol-5-yl]biphenyl-4-yl}methoxy)propanamide] | 0.5 (≈ 1.07 µM) | > 64 | > 64 | 0.00399 | > 64 | > 64 | > 64 | 32 (≈ 68.4 µM)
COCc1ccc([C@H](O)[C@](C)(OCc2ccc(-c3ccccc3)cc2)C(=O)NO)o1 [Example 24, (2S,3S)-2-(biphenyl-4-ylmethoxy)-N,3-dihydroxy-3-[5-(methoxymethyl)-2-furyl]-2-methylpropanamide] | 2 (≈ 4.86 µM) | > 64 | > 64 | 0.00128 | > 64 | > 64 | > 64 | 32 (≈ 77.8 µM)
C[C@@](OCc1ccc(-c2ccccc2)cc1)(C(=O)NO)[C@@H](O)c1cc(CO)on1 [Example 34, (2S,3S)-2-(biphenyl-4-ylmethoxy)-N,3-dihydroxy-3-[5-(hydroxymethyl)isoxazol-3-yl]-2-methylpropanamide] | 0.023 (≈ 0.0577 µM) | > 64 | 28 (≈ 70.3 µM) | 0.000579 | 64 (≈ 161 µM) | > 64 | 64 (≈ 161 µM) | 1.25 (≈ 3.14 µM)
Cc1cc(CNC(=O)C(C)(OCc2ccc(-c3ccc(-c4cc(CO)no4)cc3)cc2)C(=O)NO)no1 (centres unmarked) [Example 84, N-hydroxy-2-({4′-[3-(hydroxymethyl)isoxazol-5-yl]biphenyl-4-yl}methoxy)-2-methyl-N′-[(5-methylisoxazol-3-yl)methyl]malonamide] | 0.06 (≈ 0.118 µM) | 16 (≈ 31.6 µM) | 1 (≈ 1.97 µM) | 0.000861 | > 64 | > 64 | 8 (≈ 15.8 µM) | 2 (≈ 3.95 µM)
CC(OCc1ccc(-c2ccccc2)cc1)(C(=O)NO)C1(O)CCC1 (centres unmarked) [Example 48, 2-(biphenyl-4-ylmethoxy)-N-hydroxy-2-(1-hydroxycyclobutyl)propanamide] | < 0.06 | > 64 | > 64 | 0.00623 | > 64 | > 64 | > 64 | 16 (≈ 46.9 µM)
C[C@@](OCc1ccc(-c2ccccc2)cc1)(C(=O)NO)[C@@H](O)c1ccccn1 [Example 17, (2S,3S)-2-(biphenyl-4-ylmethoxy)-N,3-dihydroxy-2-methyl-3-pyridin-2-ylpropanamide] | 0.25 (≈ 0.661 µM) | > 64 | 16 (≈ 42.3 µM) | 0.0015 | 32 (≈ 84.6 µM) | > 64 | > 64 | 8 (≈ 21.1 µM)
C[C@@](OCc1ccc(-c2ccccc2)cc1)(C(=O)NO)[C@@H](O)c1cc(-c2ccccc2)on1 [Example 28, (2S,3S)-2-(biphenyl-4-ylmethoxy)-N,3-dihydroxy-2-methyl-3-(5-phenylisoxazol-3-yl)propanamide] | 4 (≈ 9 µM) | > 16 | 8 (≈ 18 µM) | 0.00143 | 8 (≈ 18 µM) | 16 (≈ 36 µM) | > 16 | 8 (≈ 18 µM)
